Measured values as given in the supplement of paper PMC4862054.
Where “and” joins values, the source holds several entries; their conditions need not be identical. Identical values can stand only once.

Tests used:
Settings in all cases: incubation time: 72 h
DU-4475 = test: normalised viability (% of control), CellTiter-Blue; higher = more viable cells (100 = DMSO, 0 = benzethonium chloride kill control)
Method: (§1)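 DSRT, CellTiter-Blue viability, 72 h incubation. Signal is normalised to DMSO and benzethonium chloride controls. Value is the normalised response at dose 1.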

Hs578T [1] = test: as above
Method: as §1

MFM-223 [2] = test: as above
Method: as §1

MDA-MB-468 [3] = test: as above
Method: as §1

MDA-MB-436 [4] = test: as above
Method: as §1

MDA-MB-231 [5] = test: as above
Method: as §1

MDA-MB-453 = test: as above
Method: as §1

CAL-85-1 [6] = test: as above
Method: as §1

HDQ-P1 [7] = test: as above
Method: as §1

HCC1937 [8] = test: as above
Method: as §1

BT-474 [9] = test: as above
Method: as §1

CAL-148 [10] = test: as above
Method: as §1

CAL-51 [11] = test: as above
Method: as §1

CAL-120 = test: as above
Method: as §1

BT-549 [12] = test: as above
Method: as §1

HCC1143 = test: as above
Method: as §1

HCC1599 [13] = test: as above
Method: as §1

SK-BR-3 [14] = test: as above
Method: as §1

Hs578T [15] = test: normalised viability (% of control), CellTiter-Blue; higher = more viable cells (about 100 = DMSO control)
Method: (§2)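 DSRT, CellTiter-Blue viability, 72 h incubation. Signal is normalised to DMSO and benzethonium chloride controls. Value is the normalised response at dose 3.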

MFM-223 [16] = test: as above
Method: as §2

MDA-MB-468 [17] = test: as above
Method: as §2

MDA-MB-436 [18] = test: as above
Method: as §2

MDA-MB-231 [19] = test: as above
Method: as §2

CAL-85-1 [20] = test: as above
Method: as §2

HDQ-P1 [21] = test: as above
Method: as §2

HCC1937 [22] = test: as above
Method: as §2

BT-474 [23] = test: as above
Method: as §2

CAL-148 [24] = test: as above
Method: as §2

CAL-51 [25] = test: as above
Method: as §2

BT-549 [26] = test: as above
Method: as §2

HCC1599 [27] = test: as above
Method: as §2

SK-BR-3 [28] = test: as above
Method: as §2

SMILES: Nc1cccc2c1CN(C1CCC(=O)NC1=O)C2=O (stereo unspecified) [Lenalidomide]
- normalised viability (DU-4475; 1 nM): 99% and 102%
- normalised viability (Hs578T [1]; 1 nM): 97.1% and 106%
- normalised viability (MFM-223 [2]; 1 nM): 89.4% and 94.1%
- normalised viability (MDA-MB-468 [3]; 1 nM): 99.6% and 98.9%
- normalised viability (MDA-MB-436 [4]; 1 nM): 97.6% and 82.2%
- normalised viability (MDA-MB-231 [5]; 1 nM): 85.2% and 82.6%
- normalised viability (MDA-MB-453; 1 nM): 87.5% and 104%
- normalised viability (CAL-85-1 [6]; 1 nM): 79.2% and 80.7%
- normalised viability (HDQ-P1 [7]; 1 nM): 86.6% and 103%
- normalised viability (HCC1937 [8]; 1 nM): 90.1% and 78%
- normalised viability (BT-474 [9]; 1 nM): 93.9% and 73.5%
- normalised viability (CAL-148 [10]; 1 nM): 92.4% and 102%
- normalised viability (CAL-51 [11]; 1 nM): 104% and 105%
- normalised viability (CAL-120; 1 nM): 76.8% and 81.8%
- normalised viability (BT-549 [12]; 1 nM): 108% and 115%
- normalised viability (HCC1143; 1 nM): 85.5% and 80.6%
- normalised viability (HCC1599 [13]; 1 nM): 92.1% and 98.5%
- normalised viability (SK-BR-3 [14]; 1 nM): 94.7% and 87.4%
- normalised viability (Hs578T [15]; 100 nM): 85.7% and 86.3%
- normalised viability (MFM-223 [16]; 100 nM): 91.3% and 90.2%
- normalised viability (MDA-MB-468 [17]; 100 nM): 100% and 94.2%
- normalised viability (MDA-MB-436 [18]; 100 nM): 80% and 93.4%
- normalised viability (MDA-MB-231 [19]; 100 nM): 88.9% and 87.4%
- normalised viability (CAL-85-1 [20]; 10 nM): 88.2% and 90.5%
- normalised viability (HDQ-P1 [21]; 10 nM): 101% and 93.8%
- normalised viability (HCC1937 [22]; 100 nM): 92.2% and 102%
- normalised viability (BT-474 [23]; 100 nM): 115% and 94.3%
- normalised viability (CAL-148 [24]; 10 nM): 88% and 92.2%
- normalised viability (CAL-51 [25]; 10 nM): 106% and 104%
- normalised viability (BT-549 [26]; 100 nM): 92.2% and 101%
- normalised viability (HCC1599 [27]; 100 nM): 117% and 96.9%
- normalised viability (SK-BR-3 [28]; 100 nM): 73.6% and 88.2%

SMILES: C[C@]12O[C@H](C[C@]1(O)CO)n1c3ccccc3c3c4c(c5c6ccccc6n2c5c31)CNC4=O [Lestaurtinib]
- normalised viability (DU-4475; 0.1 nM): 110%
- normalised viability (Hs578T [1]; 0.1 nM): 118%
- normalised viability (MFM-223 [2]; 0.1 nM): 107%
- normalised viability (MDA-MB-468 [3]; 0.1 nM): 126%
- normalised viability (MDA-MB-436 [4]; 0.1 nM): 126%
- normalised viability (MDA-MB-231 [5]; 0.1 nM): 115%
- normalised viability (MDA-MB-453; 0.1 nM): 113%
- normalised viability (CAL-85-1 [6]; 0.1 nM): 100%
- normalised viability (HDQ-P1 [7]; 0.1 nM): 113%
- normalised viability (HCC1937 [8]; 0.1 nM): 96.4%
- normalised viability (BT-474 [9]; 0.1 nM): 100%
- normalised viability (CAL-148 [10]; 0.1 nM): 118%
- normalised viability (CAL-51 [11]; 0.1 nM): 115%
- normalised viability (CAL-120; 0.1 nM): 101%
- normalised viability (BT-549 [12]; 0.1 nM): 120%
- normalised viability (HCC1143; 0.1 nM): 107%
- normalised viability (HCC1599 [13]; 0.1 nM): 109%
- normalised viability (SK-BR-3 [14]; 0.1 nM): 97.7%
- normalised viability (Hs578T [15]; 10 nM): 83%
- normalised viability (MFM-223 [16]; 10 nM): 107%
- normalised viability (MDA-MB-468 [17]; 10 nM): 92.9%
- normalised viability (MDA-MB-436 [18]; 10 nM): 103%
- normalised viability (MDA-MB-231 [19]; 10 nM): 110%
- normalised viability (CAL-85-1 [20]; 1 nM): 99.7%
- normalised viability (HDQ-P1 [21]; 1 nM): 113%
- normalised viability (HCC1937 [22]; 10 nM): 79.5%
- normalised viability (BT-474 [23]; 10 nM): 127%
- normalised viability (CAL-148 [24]; 1 nM): 101%
- normalised viability (CAL-51 [25]; 1 nM): 115%
- normalised viability (BT-549 [26]; 10 nM): 106%
- normalised viability (HCC1599 [27]; 10 nM): 102%
- normalised viability (SK-BR-3 [28]; 10 nM): 91.3%

SMILES: O=C1c2c(O)ccc(O)c2C(=O)c2c(NCCNCCO)ccc(NCCNCCO)c21 [Mitoxantrone]
- normalised viability (DU-4475; 0.1 nM): 102%
- normalised viability (Hs578T [1]; 0.1 nM): 93.6%
- normalised viability (MFM-223 [2]; 0.1 nM): 84.2%
- normalised viability (MDA-MB-468 [3]; 0.1 nM): 90.7%
- normalised viability (MDA-MB-436 [4]; 0.1 nM): 121%
- normalised viability (MDA-MB-231 [5]; 0.1 nM): 87.4%
- normalised viability (MDA-MB-453; 0.1 nM): 90.6%
- normalised viability (CAL-85-1 [6]; 0.1 nM): 80.5%
- normalised viability (HDQ-P1 [7]; 0.1 nM): 101%
- normalised viability (HCC1937 [8]; 0.1 nM): 92.5%
- normalised viability (BT-474 [9]; 0.1 nM): 75.9%
- normalised viability (CAL-148 [10]; 0.1 nM): 108%
- normalised viability (CAL-51 [11]; 0.1 nM): 109%
- normalised viability (CAL-120; 0.1 nM): 74.6%
- normalised viability (BT-549 [12]; 0.1 nM): 90.5%
- normalised viability (HCC1143; 0.1 nM): 79.2%
- normalised viability (HCC1599 [13]; 0.1 nM): 92.1%
- normalised viability (SK-BR-3 [14]; 0.1 nM): 108%
- normalised viability (Hs578T [15]; 10 nM): 71.8%
- normalised viability (MFM-223 [16]; 10 nM): 85.9%
- normalised viability (MDA-MB-468 [17]; 10 nM): 80.4%
- normalised viability (MDA-MB-436 [18]; 10 nM): 99.6%
- normalised viability (MDA-MB-231 [19]; 10 nM): 72.5%
- normalised viability (CAL-85-1 [20]; 1 nM): 95.1%
- normalised viability (HDQ-P1 [21]; 1 nM): 95%
- normalised viability (HCC1937 [22]; 10 nM): 46.6%
- normalised viability (BT-474 [23]; 10 nM): 98.2%
- normalised viability (CAL-148 [24]; 1 nM): 94.3%
- normalised viability (CAL-51 [25]; 1 nM): 104%
- normalised viability (BT-549 [26]; 10 nM): 87.7%
- normalised viability (HCC1599 [27]; 10 nM): 108%
- normalised viability (SK-BR-3 [28]; 10 nM): 75.6%
